Data on 27 molecules can be found in US20230088214A1, “GLYCOLATE OXIDASE INHIBITORS FOR THE TREATMENT OF DISEASE” (BIOMARIN PHARMACEUTICAL INC., priority 2019, published 2023).

Experiment [1] concerns the target T1, GO (Homo sapiens, UniProt Q9UJM8).
T1 sequence (Q9UJM8 1-370): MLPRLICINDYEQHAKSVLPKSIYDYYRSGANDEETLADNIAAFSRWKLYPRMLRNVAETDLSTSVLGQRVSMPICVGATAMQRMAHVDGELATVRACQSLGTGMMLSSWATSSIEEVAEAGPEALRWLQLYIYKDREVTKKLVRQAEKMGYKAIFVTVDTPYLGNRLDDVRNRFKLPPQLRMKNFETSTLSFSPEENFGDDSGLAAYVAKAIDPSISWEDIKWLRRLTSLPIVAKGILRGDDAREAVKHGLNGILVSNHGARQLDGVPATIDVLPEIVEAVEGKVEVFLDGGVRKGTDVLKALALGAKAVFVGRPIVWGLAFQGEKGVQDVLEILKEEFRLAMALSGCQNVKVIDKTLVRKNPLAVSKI
Description: GO Cellular Assay: CHO-Agt Cells Assay (Assay 3). Format: cell-based, Chinese hamster. Details: host or cells: CHO cells (A.T.C.C. CCl-61) and engineered CHO-Agt cells (from Fargue/Danpure). Particulars: 100 uM glycolic acid, glyoxylate by LC-MS at 2 hours, read-out: Range of IC50 values calculated from the cellular assays (Assay 3). As to the method: Assay 3: GO Cellular Assay: CHO-Agt Cells Assay
CHO cells (A.T.C.C. number CCl-61) and engineered CHO-Agt cells (provided by Dr. Sonia Fargue and Dr. Christopher J. Danpure, Biochem. J. (2006) 394, 409-416) were used as a screening cellular assay for primary compounds. The cells were seeded in 20,000 cell/well in 96 well plate and cultured at 37-C under O2/CO2 (19:1) in Ham's F12 medium (Invitrogen) supplemented with fetal calf serum (10%, v/v), L-glutamine (2 mM), penicillin (100 units/ml) and streptomycin (100 pug/ml). After overnight culture, the cells were treated with various concentrations of inhibitors in the presence of 100 uM glycolic acid in HEPES buffer, pH7.0 (Sigma-Aldrich, Cat #124737). Culture medium was harvested at 2 hours after treatment for glyoxylate analysis and cell viability was measured by Cell Titer-Glo (Fisher Scientific, Cat #. PR-G7570).
The glyoxylate was quantified using LC-MS method. An aliquot of 120 μL medium was removed from each well and protein precipitated by adding 240 μL IS (100 ng/ml 13C2-glyoxylic acid, Sigma-Aldrich, Cat #G755002). The mixture was vortex-mixed well and centrifuged at 3900 rpm for 15 min, 4° C. 100 μL supernatant was then mixed with 10 μL formic acid and 100 μL 400 μM DNPH (2,4-dinitrophenylhydrazine) (Shanghai Runjie Huaxue Shiji Ltd., Cat #A0000436) and the mixture was shaken for 30 minutes. A 3 μL mixture of reaction mixture was injected for LC-MS/MS analysis. (Behnam J T, Williams E L, Brink S, Rumsby G, Danpure C J., “Reconstruction of human hepatocyte glyoxylate metabolic pathways in stably transformed Chinese-hamster ovary cells”, Biochem J. 2006 Mar. 1; 394 (Pt 2):409-16.)

The target in experiment [2] is T1, GO. Put plainly: GO Enzymatic Assay (Assay 1). Format: biochemical. Particulars: Table 4; class symbols without asterisk, GO Enzymatic Assay (Assay 1); read-out: Range. Details: purchased Novus Biologicals NBP1-72412. As to the method: Assay 1: GO Enzymatic Assay
GO was incubated with its substrate, glycolate, in 50 mM potassium phosphate buffer, pH 7. […] The enzyme was optimized and the kinetics was determined.
Compound inhibition was determined by adding various concentrations of inhibitors in the GO enzyme assay. The IC50 value for each measured compound was generated from sigmoidal dose-response (variable slope) curves with GraphPad Prism software (GraphPad Software, Inc., San Diego, Calif.) using the percent inhibition of GO activity relative to DMSO control.

SMILES strings stand for the structures.

For the molecule `CCOC(=O)c1[nH]nnc1Sc1nc(-c2ccc(Cl)c(Cl)c2)cs1` [Compound 1, ethyl 4-((4-(3,4-dichlorophenyl)thiazol-2-yl)thio)-1H-1,2,3-triazole-5-carboxylate], at GO [1], the IC50 is above 10000 nM.
The same measure, in the same setting: the same measure for `O=C(OC1CC1)c1[nH]nnc1Oc1ccc2cc(Br)ccc2c1` [Compound 110, cyclopropyl 4-((6-bromonaphthalen-2-yl)oxy)-1H-1,2,3-triazole-5-carboxylate]: 1000 to 5000 nM.
As for `CC(C)OC(=O)OCOC(=O)c1[nH]nnc1O[C@H]1CC[C@H](c2ccc(OC(F)(F)F)cc2)CC1` [Compound 302, ((isopropoxycarbonyl)oxy)methyl 4-(((trans)-4-(4-(trifluoromethoxy)phenyl)cyclohexyl)oxy)-1H-1,2,3-triazole-5-carboxylate], the IC50 at GO [1] was below 1000 nM.
For `O=C(O)c1[nH]nnc1O[C@H]1CC[C@H](c2ccc(-n3cccn3)cc2)CC1` [Compound 418, 4-(((trans)-4-(4-(1H-pyrazol-1-yl)phenyl)cyclohexyl)oxy)-1H-1,2,3-triazole-5-carboxylic acid], on GO [2], the IC50 is below 100 nM.
Still for that read-out and setting: the same measure for `O=C(O)c1[nH]nnc1O[C@H]1CC[C@H](c2ccc(OC(F)(F)F)c(Cl)c2)CC1` [Compound 419, 4-(((trans)-4-(3-chloro-4-(trifluoromethoxy)phenyl)cyclohexyl)oxy)-1H-1,2,3-triazole-5-carboxylic acid]: below 100 nM; for `N#Cc1ccc([C@H]2C[C@H](Sc3nn[nH]c3C(=O)O)C2)cc1` [Compound 420, 4-(((trans)-3-(4-cyanophenyl)cyclobutyl)thio)-1H-1,2,3-triazole-5-carboxylic acid 2,2,2-trifluoroacetate]: below 100 nM; for `O=C(O)c1[nH]nnc1S[C@H]1CC[C@H](c2ccc(OC(F)(F)F)cc2)CC1` [Compound 422, 4-(((trans)-4-(4-(trifluoromethoxy)phenyl)cyclohexyl)thio)-1H-1,2,3-triazole-5-carboxylic acid]: below 100 nM.
The same measure, in the same setting: the same measure for `N#Cc1ccc(COc2cc(Oc3nn[nH]c3C(=O)O)ccc2Cl)cc1` [Compound 423, 4-(4-chloro-3-((4-cyanobenzyl)oxy)phenoxy)-1H-1,2,3-triazole-5-carboxylic acid]: below 100 nM.
On the same count and under the same terms, the figure for `O=C(O)c1[nH]nnc1O[C@H]1CC[C@H](c2ccc(F)cc2F)CC1` [Compound 424, 4-(((trans)-4-(2,4-difluorophenyl)cyclohexyl)oxy)-1H-1,2,3-triazole-5-carboxylic acid 2,2,2-trifluoroacetate] is below 100 nM.
In the case of `O=C(O)c1[nH]nnc1O[C@H]1CC[C@H](c2ccc(-c3nnc[nH]3)cc2)CC1` [Compound 425, 4-(((trans)-4-(4-(4H-1,2,4-triazol-3-yl)phenyl)cyclohexyl)oxy)-1H-1,2,3-triazole-5-carboxylic acid], at GO [2], the IC50 was below 100 nM.
As for `O=C(O)c1[nH]nnc1O[C@H]1C[C@H](c2ccc(N3CCCCC3)cc2)C1` [Compound 426, 4-((trans)-3-(4-(piperidin-1-yl)phenyl)cyclobutoxy)-1H-1,2,3-triazole-5-carboxylic acid 2,2,2-trifluoroacetate], the IC50 on GO [2] was below 100 nM.
Take `O=C(O)c1[nH]nnc1S[C@H]1CC[C@H](c2cc(Cl)ccc2OC(F)(F)F)CC1` [Compound 430, 4-(((trans)-4-(5-chloro-2-(trifluoromethoxy)phenyl)cyclohexyl)thio)-1H-1,2,3-triazole-5-carboxylic acid]: the IC50 at GO [2] was below 100 nM.
On the same count and under the same terms, the same measure for `O=C(O)c1[nH]nnc1O[C@H]1CC[C@H](c2ccc(-c3nncs3)cc2)CC1` [Compound 431, 4-(((trans)-4-(4-(1,3,4-thiadiazol-2-yl)phenyl)cyclohexyl)oxy)-1H-1,2,3-triazole-5-carboxylic acid 2,2,2-trifluoroacetate]: below 100 nM; for `O=C(O)c1[nH]nnc1S[C@H]1CC[C@H](c2ccc(N3CCCCC3)cc2)CC1` [Compound 432, 4-(((trans)-4-(4-(piperidin-1-yl)phenyl)cyclohexyl)thio)-1H-1,2,3-triazole-5-carboxylic acid 2,2,2-trifluoroacetate]: below 100 nM; for `O=C(O)c1[nH]nnc1O[C@H]1CC[C@H](c2ccc(-c3nnco3)cc2)CC1` [Compound 433, 4-(((trans)-4-(4-(1,3,4-oxadiazol-2-yl)phenyl)cyclohexyl)oxy)-1H-1,2,3-triazole-5-carboxylic acid]: below 100 nM.
`O=C(O)c1[nH]nnc1S[C@H]1C[C@H](c2ccc(N3CCCCC3)cc2)C1` [Compound 434, 4-(((trans)-3-(4-(piperidin-1-yl)phenyl)cyclobutyl)thio)-1H-1,2,3-triazole-5-carboxylic acid 2,2,2-trifluoroacetate]: the IC50 at GO [2] was below 100 nM.
Same read-out and setting: the same measure for `O=C(O)c1[nH]nnc1O[C@H]1CC[C@H](c2ccc(N3CCCCC3)cc2)CC1` [Compound 436, 4-(((trans)-4-(4-(piperidin-1-yl)phenyl)cyclohexyl)oxy)-1H-1,2,3-triazole-5-carboxylic acid 2,2,2-trifluoroacetate]: below 100 nM.
In the case of `CS(=O)(=O)c1ccc([C@H]2CC[C@H](Oc3nn[nH]c3C(=O)O)CC2)cc1` [Compound 438, 4-(((trans)-4-(4-(methylsulfonyl)phenyl)cyclohexyl)oxy)-1H-1,2,3-triazole-5-carboxylic acid], the IC50 at GO [2] is below 100 nM.
Turning to `CS(=O)(=O)c1ccc([C@H]2CC[C@H](Sc3nn[nH]c3C(=O)O)CC2)cc1` [Compound 439, 4-(((trans)-4-(4-(methylsulfonyl)phenyl)cyclohexyl)thio)-1H-1,2,3-triazole-5-carboxylic acid 2,2,2-trifluoroacetate], on GO [2], the IC50 was below 100 nM.
With `O=C(O)c1[nH]nnc1O[C@H]1CC[C@H](c2ccc(N3CCCCC3)c(Cl)c2)CC1` [Compound 441, 4-(((trans)-4-(3-chloro-4-(piperidin-1-yl)phenyl)cyclohexyl)oxy)-1H-1,2,3-triazole-5-carboxylic acid 2,2,2-trifluoroacetate], the IC50 at GO [2] was below 100 nM.
Same read-out and setting: the same measure for `O=C(O)c1[nH]nnc1Oc1ccc(Cl)c(OC2CC2)c1` [Compound 445, 4-(4-chloro-3-cyclopropoxyphenoxy)-1H-1,2,3-triazole-5-carboxylic acid]: below 100 nM.
In the case of `OCc1[nH]nnc1S[C@H]1CC[C@@H](c2ccc(OC(F)(F)F)cc2)CC1` [Compound 489, (4-(((cis)-4-(4-(trifluoromethoxy)phenyl)cyclohexyl)thio)-1H-1,2,3-triazol-5-yl)methanol], at GO [1], the IC50 was 1000 to 5000 nM.
Take `OCc1[nH]nnc1Oc1ccc(-c2ccc(Cl)cc2)cc1` [Compound 493-2, (4-((4′-chloro-[1,1′-biphenyl]-4-yl)oxy)-1H-1,2,3-triazol-5-yl)methanol]: the IC50 on GO [1] is 1000 to 5000 nM.
On the same count and under the same terms, the figure for `OCc1[nH]nnc1OC1CCN(c2cc(Cl)cc(Cl)c2)CC1` [Compound 494, (4-((1-(3,5-dichlorophenyl)piperidin-4-yl)oxy)-1H-1,2,3-triazol-5-yl)methanol] is 5000 to 10000 nM; for `OCc1[nH]nnc1SC1CCN(c2cc(Cl)cc(Cl)c2)CC1` [Compound 495, (4-((1-(3,5-dichlorophenyl)piperidin-4-yl)thio)-1H-1,2,3-triazol-5-yl)methanol] it is above 10000 nM.
For `O=C(O)c1[nH]nnc1COC1CCN(c2cc(Cl)cc(Cl)c2)CC1` [Example 477, 4-(((1-(3,5-dichlorophenyl)piperidin-4-yl)oxy)methyl)-1H-1,2,3-triazole-5-carboxylic acid], at GO [2], the IC50 is below 100 nM.
Same read-out and setting: the figure for `O=C(O)c1[nH]nnc1COC1CCN(c2cc(Cl)ccc2Cl)CC1` [Example 481, 4-(((1-(2,5-dichlorophenyl)piperidin-4-yl)oxy)methyl)-1H-1,2,3-triazole-5-carboxylic acid] is 100 to 1000 nM.
